The values that follow come from US7342025B2, “Substituted C-imidazo[1,2-a]pyridin-3-yl-methylamines” (Gruenenthal GmbH, priority 2002, dated 2008).

As usually defined, the IC50 is the concentration that gives 50% inhibition. The low end stands for greater potency in that assay, the high end for weaker potency in that assay.

The target in this assay is nitrogen monoxide synthase (Rattus norvegicus, UniProt P29476). Nature of the assay: citrulline assay, inhibition of NO synthase. It is filed as biochemical. On the procedure: The IC50 value of each of the example compounds as an inhibitor of NO synthase was determined in a citrulline assay. This assay was carried out as described by D. S. Bredt and S. H. Snyder (Proc. Natl. Acad. Sci. USA (1990), 87, 682-685).

Each structure is given as a SMILES string.

For the compound `Cc1ccn2c(CN(C)C)c(C)nc2c1` [Example 1], it took 4 µM to reach half-maximal inhibition (IC50).

As to `Cc1ccnc(NCc2c(C)nc3cc(C)ccn23)c1` [Example 2, (2,7-Dimethyl-imidazo[1,2-a]pyridin-3-ylmethyl)-(4-methyl-pyridin-2-yl)-amine], the midpoint of inhibition, the IC50, lay at 2.5 µM.
